*1 amine or outer side, *2 acyl side, *3 side chain or, on linkers, in order; H or OH if unused. Where a SMILES comes first, the peptide text is derived from it. Bridges are numbered along the chain shown (N, C = ends). [ ]: non-standard residue; d: D form. The star is where a group is joined. ξ: configuration not given here. X1 = CC(C)=CCCC(C)C1CCC2(C)C3=C(CCC12C)C1(C)CCC(OC(=O)*)C(C)(C)C1CC3; ξOrn(4,5-diOH) = O=C(C(CC(O)C(O)N[*:3])N[*:1])[*:2]; ξhTyr(βOH) = NC(C(=O)O)C(O)Cc1ccc(O)cc1; ξPro(3ξ-OH,4ξ-Me) = CC1CNC(C(=O)O)C1O; Hyp = O=C(O)[CH]1C[CH](O)CN1
Target: T1, Glucan Synthase of Candida Albicans (Candida albicans, UniProt O13428)
T1 construct: 22.5 μg of membrane proteins are incubated in a mixture of 2 mM of; endogenous in cells
T1 sequence (O13428 1-1897): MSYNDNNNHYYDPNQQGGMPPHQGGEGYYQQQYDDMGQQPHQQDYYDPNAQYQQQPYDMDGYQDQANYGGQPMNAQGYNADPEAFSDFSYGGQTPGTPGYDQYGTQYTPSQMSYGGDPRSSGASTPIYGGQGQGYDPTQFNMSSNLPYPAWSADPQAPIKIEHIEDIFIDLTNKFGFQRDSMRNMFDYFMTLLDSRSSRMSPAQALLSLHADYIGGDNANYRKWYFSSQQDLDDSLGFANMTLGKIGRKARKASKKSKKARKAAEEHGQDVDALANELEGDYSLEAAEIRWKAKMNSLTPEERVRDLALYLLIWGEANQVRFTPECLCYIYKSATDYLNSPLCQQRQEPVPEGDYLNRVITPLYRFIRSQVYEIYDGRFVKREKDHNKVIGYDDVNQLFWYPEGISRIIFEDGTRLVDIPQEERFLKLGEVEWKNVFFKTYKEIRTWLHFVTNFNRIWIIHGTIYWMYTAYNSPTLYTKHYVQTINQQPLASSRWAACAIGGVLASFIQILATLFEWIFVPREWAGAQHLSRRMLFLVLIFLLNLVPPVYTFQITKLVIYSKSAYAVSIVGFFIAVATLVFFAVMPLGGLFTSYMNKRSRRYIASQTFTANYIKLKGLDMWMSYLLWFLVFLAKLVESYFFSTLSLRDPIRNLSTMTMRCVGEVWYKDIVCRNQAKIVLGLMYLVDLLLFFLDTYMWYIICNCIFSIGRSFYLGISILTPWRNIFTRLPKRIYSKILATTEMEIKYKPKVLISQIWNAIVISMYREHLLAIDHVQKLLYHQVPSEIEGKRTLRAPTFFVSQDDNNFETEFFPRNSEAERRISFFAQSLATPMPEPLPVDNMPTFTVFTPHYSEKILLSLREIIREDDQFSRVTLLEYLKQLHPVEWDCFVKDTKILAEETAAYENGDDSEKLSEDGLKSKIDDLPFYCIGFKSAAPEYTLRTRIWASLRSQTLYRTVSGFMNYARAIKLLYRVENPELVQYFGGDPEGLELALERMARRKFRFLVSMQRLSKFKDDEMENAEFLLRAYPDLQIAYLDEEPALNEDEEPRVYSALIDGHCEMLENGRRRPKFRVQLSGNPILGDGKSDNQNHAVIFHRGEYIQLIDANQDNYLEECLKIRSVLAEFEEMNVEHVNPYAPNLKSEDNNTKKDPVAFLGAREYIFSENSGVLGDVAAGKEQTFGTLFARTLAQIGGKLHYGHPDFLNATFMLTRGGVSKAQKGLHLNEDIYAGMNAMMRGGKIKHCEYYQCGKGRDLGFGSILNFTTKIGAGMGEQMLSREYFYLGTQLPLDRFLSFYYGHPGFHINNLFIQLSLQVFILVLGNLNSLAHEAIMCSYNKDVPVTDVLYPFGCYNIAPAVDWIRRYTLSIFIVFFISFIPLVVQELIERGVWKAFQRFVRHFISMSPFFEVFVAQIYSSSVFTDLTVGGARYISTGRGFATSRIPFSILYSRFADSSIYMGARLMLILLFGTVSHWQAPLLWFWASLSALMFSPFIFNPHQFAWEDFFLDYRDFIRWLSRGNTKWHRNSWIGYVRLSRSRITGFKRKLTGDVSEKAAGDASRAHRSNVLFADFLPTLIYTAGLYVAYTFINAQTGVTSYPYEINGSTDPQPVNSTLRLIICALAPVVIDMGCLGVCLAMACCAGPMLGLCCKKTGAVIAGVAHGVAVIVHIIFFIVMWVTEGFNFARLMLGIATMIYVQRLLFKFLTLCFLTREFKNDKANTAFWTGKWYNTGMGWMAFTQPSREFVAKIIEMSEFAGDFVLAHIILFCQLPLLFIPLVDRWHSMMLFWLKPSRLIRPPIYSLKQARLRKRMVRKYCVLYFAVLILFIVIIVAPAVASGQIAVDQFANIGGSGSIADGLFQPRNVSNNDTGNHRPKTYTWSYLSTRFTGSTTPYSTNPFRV
T1 sequence (O42825 1-195 partner limits assumed): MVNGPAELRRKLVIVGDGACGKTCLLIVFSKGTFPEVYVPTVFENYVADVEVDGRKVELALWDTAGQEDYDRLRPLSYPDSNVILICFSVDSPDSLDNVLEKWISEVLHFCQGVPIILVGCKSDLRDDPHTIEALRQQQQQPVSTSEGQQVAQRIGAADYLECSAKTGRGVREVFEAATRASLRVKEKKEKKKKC
Assay: Inhibition of the glucan synthase of Candida albicans (14C-UDP glucose incorporation, membrane preparation)
Format: biochemical
Conditions: Candida albicans membranes, 25° C., 1 hour; result in words
Procedure: A—Inhibition of the Glucan Synthase of Candida Albicans.
Candida albicans membranes are purified according to the process described by Tang et al Antimicrob. Agents Chemother 35, 99-103, 1991. 22.5 μg of membrane proteins are incubated in a mixture of 2 mM of ^14C-UDP glucose (specific activity=0.34 mCi./mmol, 50 μg of a α-amylase, 1 mM of dithiotreitol (DTT), 1 mM EDTA, 100 mM NaF, 7 μM of GTP-γ-S, 1M of sucrose and 50 mM of Tris-HCL (pH 7.8) in a volume of 100 μl. The medium is incubated at 25° C. for 1 hour and the reaction is terminated by adding TCA at a final concentration of 5%. The reaction mixture is transferred onto a pre-moistened glass fibre filter. The filter is washed, dried and its radioactivity is counted. Mulundocandin is used as a positive control. Control of the vehicle is carried out with the same quantity of 1% DMSO.

Row | Compound | Inhibition of the Glucan Synthase of Candida Albicans
1 | 1-[(4R,5R)-4,5-dihydroxy-N2-[[[(3β, 22E)-ergosta-5,7,22-trien-3-yl]oxy]carbonyl]-L-ornithine]-mulundocandin [Example 3] | good activity
2 | CC(C)=CCCC(C)C1CCC2(C)C3=C(CCC12C)C1(C)CCC(OC(=O)NC2CC(O)C(O)NC(=O)C(CO)NC(=O)C4C(O)C(C)CN4C(=O)C(C(O)Cc4ccc(O)cc4)NC(=O)C4CC(O)CN4C(=O)C(C(C)O)NC2=O)C(C)(C)C1CC3 [Example 2, 1-[(4R,5R)-4,5-dihydroxy-N2-[[[(3β)-lanosta-8,24-dien-3-yl]oxy]carbonyl]-L-ornithine]-deoxymulundocandin] (X1-[ξOrn(4,5-diOH)]T[Hyp][ξhTyr(βOH)][ξPro(3ξ-OH,4ξ-Me)]S; lactam 1-C; configuration not given here) | good activity
